{
  "source": "patent US20230390315A1",
  "about": "“COMPOSITIONS AND METHODS FOR TREATING ISCHEMIC CONDITIONS” (The Regents of the University of California, priority 2020, published 2023)",
  "key": {"HUVEC": {"system": "HUVEC", "assay": "HUVEC proliferation assay", "format": "cell-based, human", "protocol": "Proliferation assays with BCECs and BRECs were performed. Log-phase growing BCECs or BRECs (passage <10) were trypsinized, re-suspended and seeded in 96-well plates (no coating) in low-glucose DMEM supplemented with 10% bovine calf serum, 2 mM glutamine, and antibiotics (growth medium), at a density of 1200-1500 cells per well in 200 μl volume. All reagents were added at the indicated final concentrations. After 3-6 days, cells were incubated with AlamarBlue for 4 hrs. Fluorescence was measured at 530 nm excitation wavelength and 590 nm emission wavelength. The experiments were repeated at least three times. To create a hypoxic condition, cells were placed in a hypoxia incubator with a mixture of gas consisting of 1% 02, 5% CO2 and 94% Nz. On each 96-well plate, untreated and VEGF-treated (10/ng/ml) wells were included to monitor plate-to-plate variations. 20% methanol or 0.05% DMSO served as negative controls. 0.05% DMSO served as negative controls when Cas was tested in these cells. Human RMVECs and human adult DMVECs were split into Gelatin-coated 96 wells (2000 cells per well) in low glucose DMEM containing 10% FBS. 1200 cells/well was set up for proliferation assay in low glucose media containing FBS. Data was collected at day 4 or 5. HUVEC (p7-10) were grown on gelatin-coated plate until it reached 70-80% confluency.\nOn the day of the assay, cells were dissociated with 0.05% trypsin, which was neutralized with 0.5% FBS-containing EBM. Cells were briefly spun and then re-suspended in 0.5% FBS-media. Cells were counted and plated in 96-well, 1000 cells/well. Triplicate wells were used for each treatment. Data were collected at day 3, and then cells were fixed in 4% paraformaldehyde for 15 min before adding crystal violet. Cell-covered areas were quantified after taking pictures by Image J software."}, "4T1 cells": {"system": "4T1 cells", "assay": "4T1 proliferation assay (MTS)", "format": "cell-based, mouse"}, "bFGFR1 or β1 integrin": {"system": "bFGFR1 or β1 integrin", "assay": "Western blot of protein molecular mass in non-ECs", "format": "cell-based", "settings": "400 μM and 2 mM", "protocol": "Cells were allowed to reach 80% confluency in 12-well plates. […] At various time points, plates were taken out of the incubator and kept on ice. Cell monolayers were first washed once with ice-cold PBS before lysis with 250 μl of Pierce RIPA buffer (ThermoFisher Scientific, Rockford, IL) or use 50 mM Tris-HCl (pH 7.6), 150 mM NaCl, 10% Glycerol, 1% NP-40 containing protease/Phosphatase inhibitor cocktail (100×) (Cell signaling, #5872). Lysates were collected and mixed with 4×Bolt LDS Sample Buffer (Novex, Carlsbad, CA) in the presence of Halt protease inhibitors and phosphatase inhibitor cocktail (ThermoFisher scientific, #NP0007). The samples were subjected to SDS-PAGE (Bolt 4-12% Bis-Tris Plus, Invitrogen) using Bolt MES SDS running buffer or NuPAGE 3-8% Tris-Acetate gel using Tris-Acetate SDS running buffer (Novex). HUVECs (passage 6-8) were plated in EBM-2 basal medium (Lonza) with 0.2% FBS. […] Equal amounts of protein lysates were analyzed by SDS-PAGE and blotted with the indicated antibodies. Proteins were transferred using Tris-Glycine buffer with 20% Methanol (Proteonomics grade) (Apex BioResearch Products). Membranes were first incubated with 5% milk in TBST, pH 7.6 (TEKnova, Hollister, CA), followed by blotting with primary and secondary antibodies. […]"}},
  "data": [
    {"smiles": "N[C@H](C=O)[C@@H](O)[C@H](O)[C@H](O)CO", "note": "[ManN, 2-Amino-2-deoxy-D-mannose]", "values": [
      {"measurement": "additivity with VEGF on proliferation", "setting": "HUVEC; HUVEC", "result": "dose-dependent additivity with VEGF"},
      {"measurement": "toxicity", "setting": "HUVEC; HUVEC, at 5 mM", "result": "minimal toxicity"},
      {"measurement": "HUVEC growth", "setting": "HUVEC; ManN by itself", "result": "stimulated"},
      {"measurement": "growth of 4T1", "setting": "4T1 cells", "result": "did not promote growth"},
      {"measurement": "toxicity on 4T1 cells", "setting": "4T1 cells; at 5 mM", "result": "significant toxicity"},
      {"measurement": "molecular mass change of bFGFR1 or β1 integrin in non-ECs", "setting": "bFGFR1 or β1 integrin", "result": "induce molecular mass change"}
    ]}
  ]
}
